Assay results: the SangsterLogP compilation

Assay: method code SF, from DOI: 10.1016/0378-5173(89)90136-1

SMILES	logP
CCCCCCNC(=S)NC	2.31
CCNC(=O)[C@@H](NC(=O)CNC(=O)c1ccccc1)C(C)C	1.05
CCNC(=O)CNC(=O)c1ccccc1	0.58
O=[N+]([O-])c1ccc(OCCN2CCOCC2)cc1	1.54
O=C(NCc1ccccc1O)c1ccccc1	2.55
O=C(OCCNC(=O)C(F)(F)F)c1ccccc1	2.25
O=C(OC1C2C=CC1C=C2)c1ccccc1 (stereo not given)	3.03

Now from value to compound:

logP	SMILES
1.78	COCCOC(=O)c1ccccc1
1.12	O=C(OCCO)c1ccccc1
1.09	O=C(OCCOCCOCCO)c1ccccc1
